Assays:
[1] = target: T1, aldose reductase extracted from rat lens (Rattus norvegicus, UniProt P07943); test: Inhibition of Aldose Reductase in Vitro; assay type: biochemical
T1 construct: aldose reductase extracted from rat lens; from tissue; host or cells: rat lens
Text: Inhibition of Aldose Reductase in Vitro
According to the method of Hyman and Kinoshita (J. Biol. Chem., 240, 877, 1965), inhibitory activity of the compound of Example 23 on aldose reductase extracted from rat lens was investigated. As a result, the following IC50 value was obtained (Table 3).

[2] = test system: blood glucose; test: Enhancement of Insulin Sensitivity in Rats; assay type: in vivo; conditions: 10 mg/kg/day p.o. once daily 5 days, fasted 18 h, insulin 0.1 unit/kg i.p., n = 5, *P < 0.01, reference (insulin only) 11.0 ± 0.8
Protocol: Enhancement of Insulin Sensitivity in Rats
After rats were orally administered with the compound of Example 1 once daily for 5 days at 10 mg/kg/day, they were fasted for 18 hours and then insulin was intraperitoneally injected at 0.1 unit/kg. Blood samples were collected from the tail vein 0 and 1 hour after the injection of insulin for the determination of blood glucose (Table 1).

[3] = test system: blood glucose; test: Improvement of Glucose Tolerance in Genetically Obese Mice (OGTT); assay type: in vivo, Genetically obese mice (CS57BL ob/ob mice); conditions: ob/ob mice, fasted 18 h, glucose 2 g/kg p.o.
Protocol: Improvement of Glucose Tolerance in Genetically Obese Mice
Genetically obese mice (CS57BL ob/ob mice) were orally administered with the compound of Example 1 once daily for 5 days at 10, 30 or 100 mg/kg/day, respectively. They were fasted for 18 hours and then 2 g/kg of glucose was orally administered. Blood samples were collected from the tail vein 0, 30, 60 and 120 minutes after the administration of glucose for the determination of blood glucose (Table 2).

O=C1NC(=O)C(c2ccc(N3Cc4ccccc4C3=O)cc2)S1 (centres unmarked) [Example 1, 5-(4-(1-Oxoisoindoline-2-yl)Phenyl)Thiazolidine-2,4-Dione]
IC50 [1]: 0.09 µM
0 hour value-1 hour value (blood glucose) [2]: 23.0 ± 1.2 mg %
OGTT (% of control) ([3]; 10 mg/kg/day p.o. once daily 5 days): 98.2 % of control
OGTT (% of control) ([3]; 30 mg/kg/day p.o. once daily 5 days): 84.1 % of control
OGTT (% of control) ([3]; 100 mg/kg/day p.o. once daily 5 days): 81.1 % of control

From patent US5308856A, “Thiazolidine-2,4-dione derivatives, salts and preparation processes thereof” (Kyorin Pharmaceutical Co., Ltd., priority 1991, dated 1994)
